Values after ≈ are worked out from the molar mass of the structure shown.
Experiments:
COLO 320DM = assay: cells; details: Homo sapiens, 96 h
Description: Antiproliferative activity against human COLO320DM cells assessed as inhibition of cell growth measured after 4 days by CellTiter-Glo assay

[1] = target: Poly [ADP-ribose] polymerase 1 (Homo sapiens, UniProt P09874)
Description: Inhibition of recombinant human PARP1 expressed in Escherichia coli assessed as reduction in auto-PARylation using histone as substrate measured after 45 mins in presence of biotinylated-NAD+ by ELISA

[2] = target: T1, Poly [ADP-ribose] polymerase tankyrase-1 (Homo sapiens, UniProt O95271)
T1 sequence (O95271 whole entry): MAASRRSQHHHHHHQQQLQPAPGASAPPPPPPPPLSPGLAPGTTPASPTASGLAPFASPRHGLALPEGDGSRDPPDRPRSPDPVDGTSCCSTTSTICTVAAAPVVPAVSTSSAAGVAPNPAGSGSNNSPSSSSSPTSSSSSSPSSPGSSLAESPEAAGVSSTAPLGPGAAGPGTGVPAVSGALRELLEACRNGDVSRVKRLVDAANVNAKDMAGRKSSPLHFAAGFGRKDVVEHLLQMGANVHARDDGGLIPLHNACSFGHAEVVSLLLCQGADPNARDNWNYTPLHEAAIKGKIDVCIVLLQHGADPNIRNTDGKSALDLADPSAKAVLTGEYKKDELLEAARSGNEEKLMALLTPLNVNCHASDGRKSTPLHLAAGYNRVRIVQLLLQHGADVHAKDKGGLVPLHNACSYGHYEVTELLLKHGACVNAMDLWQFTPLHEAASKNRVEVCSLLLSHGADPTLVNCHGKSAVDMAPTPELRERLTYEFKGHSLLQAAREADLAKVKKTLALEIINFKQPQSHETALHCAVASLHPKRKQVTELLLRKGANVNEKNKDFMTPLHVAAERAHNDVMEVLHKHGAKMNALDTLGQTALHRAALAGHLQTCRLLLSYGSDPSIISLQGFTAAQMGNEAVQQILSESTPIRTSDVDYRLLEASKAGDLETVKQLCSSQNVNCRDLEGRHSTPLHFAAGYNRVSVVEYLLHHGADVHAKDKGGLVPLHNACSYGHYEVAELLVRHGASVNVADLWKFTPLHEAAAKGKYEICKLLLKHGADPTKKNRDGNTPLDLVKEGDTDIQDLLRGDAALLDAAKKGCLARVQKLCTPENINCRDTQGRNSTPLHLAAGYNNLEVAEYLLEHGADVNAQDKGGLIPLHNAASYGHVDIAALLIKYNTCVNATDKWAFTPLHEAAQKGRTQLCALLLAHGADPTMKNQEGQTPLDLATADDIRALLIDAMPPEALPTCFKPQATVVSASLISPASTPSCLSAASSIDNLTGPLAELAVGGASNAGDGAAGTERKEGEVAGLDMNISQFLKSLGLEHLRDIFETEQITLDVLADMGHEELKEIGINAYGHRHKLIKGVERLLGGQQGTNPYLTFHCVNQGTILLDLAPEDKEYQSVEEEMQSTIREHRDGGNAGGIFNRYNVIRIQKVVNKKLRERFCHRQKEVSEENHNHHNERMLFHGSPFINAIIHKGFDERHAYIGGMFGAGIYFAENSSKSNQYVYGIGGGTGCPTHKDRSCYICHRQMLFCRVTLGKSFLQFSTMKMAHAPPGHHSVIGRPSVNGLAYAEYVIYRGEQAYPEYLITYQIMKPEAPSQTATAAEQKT
Description: Inhibition of recombinant human N-terminal TEV cleavage site-fused/FLAG-poly his-tagged TNKS SAM-PARP domain (1024 to 1327 residues) expressed in Escherichia coli assessed as reduction in auto-PARylation preincubated for 10 mins followed by biotinylated-NAD+ addition and measured after 45 mins by ELISA

Tankyrase 1/2 = target: T2, Tankyrase 1/2 (Homo sapiens, UniProt Q9H2K2+O95271)
T2 sequence (Q9H2K2 whole entry): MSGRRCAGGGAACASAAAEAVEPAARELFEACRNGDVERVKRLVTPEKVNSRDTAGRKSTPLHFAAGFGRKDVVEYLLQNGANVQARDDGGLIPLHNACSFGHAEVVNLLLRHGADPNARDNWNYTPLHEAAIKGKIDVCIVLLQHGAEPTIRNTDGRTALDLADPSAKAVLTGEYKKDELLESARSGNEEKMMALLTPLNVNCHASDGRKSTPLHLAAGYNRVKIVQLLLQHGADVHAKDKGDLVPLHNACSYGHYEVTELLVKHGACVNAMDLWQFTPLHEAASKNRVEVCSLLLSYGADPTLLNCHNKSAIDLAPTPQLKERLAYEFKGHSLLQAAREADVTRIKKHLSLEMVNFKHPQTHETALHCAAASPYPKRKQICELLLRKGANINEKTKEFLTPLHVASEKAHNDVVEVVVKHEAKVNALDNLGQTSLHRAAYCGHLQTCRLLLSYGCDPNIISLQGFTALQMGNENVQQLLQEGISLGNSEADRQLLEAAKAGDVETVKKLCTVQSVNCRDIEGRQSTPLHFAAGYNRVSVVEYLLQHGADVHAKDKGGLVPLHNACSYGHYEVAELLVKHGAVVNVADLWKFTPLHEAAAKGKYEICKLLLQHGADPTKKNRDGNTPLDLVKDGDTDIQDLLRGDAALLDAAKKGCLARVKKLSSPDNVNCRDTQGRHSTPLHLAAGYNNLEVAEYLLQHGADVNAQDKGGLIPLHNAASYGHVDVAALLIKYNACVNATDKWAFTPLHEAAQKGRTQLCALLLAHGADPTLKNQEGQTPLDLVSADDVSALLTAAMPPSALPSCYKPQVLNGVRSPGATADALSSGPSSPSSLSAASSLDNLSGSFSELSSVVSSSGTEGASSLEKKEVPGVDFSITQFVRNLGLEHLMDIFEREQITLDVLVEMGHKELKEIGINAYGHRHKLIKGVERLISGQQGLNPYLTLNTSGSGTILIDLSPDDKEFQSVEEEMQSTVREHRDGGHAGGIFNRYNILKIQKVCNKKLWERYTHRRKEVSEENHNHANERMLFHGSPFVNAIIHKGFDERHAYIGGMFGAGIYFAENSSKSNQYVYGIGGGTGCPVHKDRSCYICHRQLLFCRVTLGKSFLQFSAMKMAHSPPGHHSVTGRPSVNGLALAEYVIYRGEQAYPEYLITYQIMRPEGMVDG
T2 sequence (O95271 whole entry): T1 sequence (O95271 whole entry)
Description: Inhibition of TNKS/TNKS2 (unknown origin) expressed in human DLD1 cells assessed as reduction in Wnt-signaling measured after 24 hrs by TCF-luciferase reporter gene assay

[3] = target: T3, Poly [ADP-ribose] polymerase tankyrase-2 (Homo sapiens, UniProt Q9H2K2)
T3 sequence (Q9H2K2 whole entry): T2 sequence (Q9H2K2 whole entry)
Description: Inhibition of recombinant human N-terminal TEV cleavage site-fused/FLAG-poly his-tagged TNKS2 SAM-PARP domain (613 to 1166 residues) expressed in Escherichia coli assessed as reduction in auto-PARylation preincubated for 10 mins followed by biotinylated-NAD+ addition and measured after 45 mins by ELISA

physchem = details: phosphate buffer, pH 7.4
in vitro [4] = details: human, liver microsomes
Description: Stability in human liver microsomes assessed as parent compound remaining at 1 uM measured after 30 mins in presence of NADPH by LC-MS/MS analysis

in vitro [5] = details: mouse, liver microsomes
Description: Stability in mouse liver microsomes assessed as parent compound remaining at 1 uM measured after 30 mins in presence of NADPH by LC-MS/MS analysis

Sequence of Poly [ADP-ribose] polymerase 1 (P09874 whole entry): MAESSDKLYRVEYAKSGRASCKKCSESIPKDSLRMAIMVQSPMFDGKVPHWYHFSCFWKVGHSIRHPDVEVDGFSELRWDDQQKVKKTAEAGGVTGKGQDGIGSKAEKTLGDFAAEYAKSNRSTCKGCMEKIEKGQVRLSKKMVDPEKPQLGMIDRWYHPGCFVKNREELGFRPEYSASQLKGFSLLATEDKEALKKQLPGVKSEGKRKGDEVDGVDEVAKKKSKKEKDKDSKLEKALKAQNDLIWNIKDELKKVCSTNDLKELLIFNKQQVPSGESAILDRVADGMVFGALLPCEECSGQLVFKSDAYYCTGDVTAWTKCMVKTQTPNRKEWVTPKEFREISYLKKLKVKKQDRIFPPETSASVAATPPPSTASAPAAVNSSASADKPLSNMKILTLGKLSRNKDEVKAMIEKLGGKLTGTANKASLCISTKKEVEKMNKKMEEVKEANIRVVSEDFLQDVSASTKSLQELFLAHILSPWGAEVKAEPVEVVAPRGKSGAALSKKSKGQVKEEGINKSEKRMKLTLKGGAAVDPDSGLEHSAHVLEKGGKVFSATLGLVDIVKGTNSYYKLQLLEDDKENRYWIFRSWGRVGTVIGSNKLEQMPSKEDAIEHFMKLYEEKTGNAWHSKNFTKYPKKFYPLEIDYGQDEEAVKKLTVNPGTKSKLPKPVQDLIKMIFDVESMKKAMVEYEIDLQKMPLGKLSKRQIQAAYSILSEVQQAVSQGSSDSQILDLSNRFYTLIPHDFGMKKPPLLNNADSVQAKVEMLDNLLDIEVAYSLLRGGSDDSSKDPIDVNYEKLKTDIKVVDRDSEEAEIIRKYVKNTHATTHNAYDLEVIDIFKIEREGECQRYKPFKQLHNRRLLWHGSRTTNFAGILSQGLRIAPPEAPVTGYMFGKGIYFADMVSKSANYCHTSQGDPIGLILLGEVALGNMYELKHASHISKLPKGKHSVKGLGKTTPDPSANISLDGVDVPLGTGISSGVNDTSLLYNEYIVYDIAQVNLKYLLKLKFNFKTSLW

Compound | GI50 (COLO 320DM) [nM] | IC50 [1] [nM] | IC50 [2] [nM] | IC50 (Tankyrase 1/2) [nM] | IC50 [3] [nM] | solubility at 1 h, 200 µM (physchem) [µg/mL] | remaining at 0.5 h, 1 µM (in vitro [4]) [%] | remaining at 0.5 h, 1 µM (in vitro [5]) [%]
COc1ccc(N2CCN(c3nc4c(c(=O)[nH]3)CC(F)(F)CC4)CC2)cc1 | > 20000 | > 20000 | 79.6 | 1971 | 36.4 | 1.1 (≈ 2.92 µM) |  | 
O=C1NC2(CCN(c3nc4c(c(=O)[nH]3)CCCC4)CC2)c2ccccc21 | 97700 | > 20000 | 514 | > 10000 | 258 | 70.1 (≈ 200 µM) |  | 
O=c1[nH]c(N2CCC3(CC2)NCc2ccccc23)nc2c1CCCC2 | 22400 | > 20000 | 118 | 1605 | 29.3 | 67 (≈ 199 µM) |  | 
COc1ccc(N2CCN(c3nc4c(c(=O)[nH]3)COCC4)CC2)cc1 | > 20000 | > 20000 | 220 | 2246 | 148 | 6 (≈ 17.5 µM) |  | 
O=c1[nH]c(N2CCC3(CC2)COc2ccccc23)nc2c1CCCC2 | 10800 | > 20000 | 43.4 | 608 | 14.6 | 0.67 (≈ 1.99 µM) | 64.3 | 0.1
O=c1[nH]c(N2CCC3(CC2)OCc2ccccc23)nc2c1CCCC2 | 5800 | > 20000 | 31.5 | 342 | 35.7 | 1.07 (≈ 3.17 µM) | 76.3 | 0
COc1cccc(N2CCN(c3nc4c(c(=O)[nH]3)CSCC4)CC2)c1 | 7400 | > 20000 | 6.2 | 148 | 4.8 | 1.7 (≈ 4.74 µM) |  | 
COc1ccc(N2CCN(c3nc4c(c(=O)[nH]3)CSCC4)CC2)cc1 | > 50000 | > 20000 | 3.4 | 114 | 2.6 | 0.9 (≈ 2.51 µM) |  | 

Further lines, results first:

GI50 (COLO 320DM) [nM] | IC50 [1] [nM] | IC50 [2] [nM] | IC50 (Tankyrase 1/2) [nM] | IC50 [3] [nM] | solubility at 1 h, 200 µM (physchem) [µg/mL] | remaining at 0.5 h, 1 µM (in vitro [4]) [%] | remaining at 0.5 h, 1 µM (in vitro [5]) [%] | Compound
6300 | > 20000 | 35 | 1161 | 49.7 | 14.2 (≈ 42.1 µM) | 99.3 | 91.7 | COc1ccccc1C1=CCN(c2nc3c(c(=O)[nH]2)CCCC3)CC1
4600 | > 20000 | 65.4 | 531 | 67.6 | 1 (≈ 2.95 µM) | 62.1 | 0 | COc1ccccc1C1CCN(c2nc3c(c(=O)[nH]2)CCCC3)CC1
14200 | > 20000 | 39.4 | 1066 | 39.7 | 5.2 (≈ 15.3 µM) |  |  | COc1cccc(N2CCN(c3nc4c(c(=O)[nH]3)CCCC4)CC2)c1
3800 | > 20000 | 2.5 | 23.2 | 2.3 | 0.5 (≈ 1.39 µM) |  |  | COc1ccccc1N1CCN(c2nc3c(c(=O)[nH]2)CSCC3)CC1
17100 | > 20000 | 67.6 | 1009 | 112 | 12.3 (≈ 35.9 µM) |  |  | COc1ccccc1N1CCN(c2nc3c(c(=O)[nH]2)COCC3)CC1
41900 | > 20000 | 6010 | 9144 |  | 69.6 (≈ 196 µM) |  |  | COc1ccccc1N1CCCN(c2nc3c(c(=O)[nH]2)CCCC3)CC1
> 20000 | > 20000 | 35 | 1294 | 45.5 | 4.6 (≈ 13.5 µM) |  |  | COc1ccc(N2CCN(c3nc4c(c(=O)[nH]3)CCCC4)CC2)cc1
13100 | > 20000 | 28.5 | 352 | 20.7 | 1.6 (≈ 4.76 µM) | 77.9 | 34.7 | O=c1[nH]c(N2CCC3(CC2)CNc2ccccc23)nc2c1CCCC2
15500 | > 20000 | 19.4 | 403 | 65.5 | 0.8 (≈ 2.13 µM) |  |  | COc1ccccc1N1CCN(c2nc3c(c(=O)[nH]2)CC(F)(F)CC3)CC1
> 20000 | > 20000 | 6170 | > 10000 | 5340 | 8.8 (≈ 23.5 µM) |  |  | COc1ccccc1N1CCN(c2nc3c(c(=O)[nH]2)C[S+]([O-])CC3)CC1 (configuration not stated)
